According to US6063587A, “Water-soluble tetrazolium salt compounds” (Dojindo Laboratories Co., Ltd., priority 1996, dated 2000):

Tests used:
[1] = Storage stability test (absorbance of aqueous buffer solution at 460 nm); format: physicochemical; conditions: 1 mM in 50 mM Tris buffer (pH 8.0), stored at 4° C. for 0, 1, 7, 14, 31 and 90 days
Description: 50 mM Tris buffer (pH 8.0) containing 1 mM of Compound a was stored at 4° C. for 0, 1, 7, 14, 31 and 90 days, and absorbances at 460 nm were measured. At the same time, the compound of the above general formula (2) described in Japanese Patent Unexamined Publication No.(Hei) 7-70092/1995 wherein both R^1 and R^2 are nitro groups (Compound b: see, the section of "Background Art") was stored in the same manner, and changes of absorbance were measured.

[2] = background statement; cited from earlier work

Row | SMILES | changes of absorbance at 460 nm on storage [1] | water solubility of formazan compound [2]
1 | O=[N+]([O-])c1ccc(-n2nc(-c3ccc(S(=O)(=O)O)cc3S(=O)(=O)[O-])n[n+]2-c2ccc(I)cc2)c([N+](=O)[O-])c1 [Compound b] | remarkable increases of absorbance | 
2 | COc1cc(-c2ccc(-n3nc(-c4ccccc4)n[n+]3-c3ccc([N+](=O)[O-])cc3)c(OC)c2)ccc1-n1nc(-c2ccccc2)n[n+]1-c1ccc([N+](=O)[O-])cc1 [nitro-TB, 3,3'-[3,3'-dimethoxy-(1,1'-biphenyl)-4,4'-diyl]-bis[2-(4-nitrophenyl)-5-phenyl]-2H-tetrazolium chloride] |  | low water solubility
